Measurements: patent publication US8609654B1, “Compounds for enzyme inhibition” (Onyx Therapeutics, Inc., priority 2006, dated 2013)

Tests used:
[1] = tested on: chymotryptic-like activity of isolated 20S constitutive proteasome vs immunoproteasome; experiment: Enzyme kinetic assay with isolated 20S proteasome preps, EC50 ratio of CT-L activity (20S ratio); format: biochemical; settings: constitutive proteasome to immunoproteasome, >1 = prefers immunoproteasome
Source text: Enzyme kinetic assays such as those disclosed in U.S. application Ser. No. 09/569,748, Example 2 and Stein et al., Biochem. (1996), 35, 3899-3908 use isolated 20S proteasome preps with greater than 90% constitutive proteasome subunits or immunoproteasome subunits. The inhibitory preference of the molecule is then based on the EC50 ratio of the chymotryptic-like activity of the constitutive proteasome to that of the immunoproteasome (20S ratio).

[2] = molecular target: T1, 20S proteasome subunit β5 vs immunoproteasome subunit LMP7 in RPMI-8226 cells (Homo sapiens, UniProt P28062+P28074); experiment: ELISA-based active site assay in RPMI-8226 cells (ELISA ratio); format: cell-based; settings: for Elisa ratio (beta5:LMP7): EC50 ratio with β5 antibody to LMP7 antibody, RPMI-8226 cells, >1 = prefers immunoproteasome
T1 construct: Cells expressing approximately equivalent amounts of immuno- and constitutive proteasome (e.g., RPMI-8226) are treated with test compound; endogenous in cells; host or cells: RPMI-8226 multiple myeloma cells
T1 sequence (P28074 60-263): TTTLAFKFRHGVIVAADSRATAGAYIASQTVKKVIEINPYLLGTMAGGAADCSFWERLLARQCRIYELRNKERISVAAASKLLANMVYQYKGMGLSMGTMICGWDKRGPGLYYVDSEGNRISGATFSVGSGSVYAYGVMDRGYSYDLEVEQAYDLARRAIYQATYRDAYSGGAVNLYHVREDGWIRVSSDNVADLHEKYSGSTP
T1 sequence (P28062 73-276): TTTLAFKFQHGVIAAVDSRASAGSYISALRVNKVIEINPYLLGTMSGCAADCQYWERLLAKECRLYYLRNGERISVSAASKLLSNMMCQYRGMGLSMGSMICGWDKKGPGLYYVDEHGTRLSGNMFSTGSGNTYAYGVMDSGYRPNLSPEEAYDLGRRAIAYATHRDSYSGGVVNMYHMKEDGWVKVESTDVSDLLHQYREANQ
Procedure: Lastly, a more cell-based approach can be utilized. Cells expressing approximately equivalent amounts of immuno- and constitutive proteasome (e.g., RPMI-8226) are treated with test compound, followed by the method for determining the activity of a proteasome inhibitor as described in application Ser. No. 11/254,541. The ratio of the EC50 generated in the ELISA-based assay using β5 antibody and LMP7 antibodies (ELISA ratio) provides the basis for determining the inhibitory preference of the test compound. […] In all three assays, a ratio of less than one denotes the molecule inhibits the CT-L activity of the constitutive proteasome better than that of the immunoproteasome. Ratios greater than one signifies the molecule inhibits chymotrypsin-like activity of the immunoproteasome better than that of the constitutive proteasome.
A suitable ELISA assay may be found in U.S. patent application Ser. No. 11/254,541, incorporated herein in its entirety. Briefly, RPMI-8226 cells were treated with 0.1 nM to 1 μM of proteasome Inhibitor B. The samples were then washed with phosphate-buffered saline (PBS) and lysed in hypotonic buffer (20 mM Tris pH 8, 5 mM EDTA) (Tris-HCl and EDTA are available from Teknova, Inc., Hollister, Calif.). Cellular debris was removed by centrifugation at 14,000 rpm in a microfuge (4° C.) for 2 min. The supernatant was transferred to a fresh tube, snap frozen in liquid nitrogen and stored at −80° C. After thawing on ice, the samples (30 μl for assays run in triplicate) were treated with 500 nM of Inhibitor A for 1 hr at room temperature. Following treatment with Inhibitor A, the lysate was denatured by addition of seven volumes of 1% SDS (210 μl) (available from Bio-Rad, Hercules, Calif.) and heating at 99° C. with vigorous shaking for 5 min. The sample was allowed to cool and two volumes (60 μl) of 10% Triton X-100 (available from Bio-Rad, Hercules, Calif.) was added.
Streptavidin sepharose beads (6.5 μl/well) (available from Amersham Biosciences, Piscataway, N.J.), were washed three times with 1 ml PBS (available from Mediatech, Inc., Herndon, Va.) in a microcentrifuge tube. The beads were resuspended in ELISA wash/block buffer (PBS+0.1% Tween 20+1% bovine serum albumin; 20 μl/well) and transferred to the wells of a 96 well filter plate (BSA is available from Sigma, St. Louis, Mo.; Tween is available from Calbiochem, San Diego, Calif.). Denatured whole blood or PBMC lysates that were treated with Inhibitor 3 were added to the filter plate wells containing the streptavidin sepharose beads (each sample assayed in triplicate) and incubated for 1 hr at room temperature with shaking (MultiScreen-DV Opaque Plates with low protein binding durapore membrane; available from Millipore, Billerica, Mass.). The unbound material was removed by gentle filtration and the beads were washed six times with ELISA wash/block buffer (200 μl each).
Primary antibody to human 20S proteasome subunit (35 (rabbit polyclonal antibody; available from Biomol, Plymouth Meeting, Pa.) or human 20S immunoproteasome subunit LMP7 (rabbit polyclonal antibody; available from Affinity BioReagents, Golden, Colo.) was diluted 1:1000 in ELISA wash/block buffer, added to the beads (100 μl/well), and incubated for 1 hr at room temperature on an orbital shaker. The beads were washed six times with ELISA wash/block buffer with gentle filtration. Secondary antibody treatment (1:5000) and washing are as described for primary antibody (goat anti-rabbit antibody-HRP conjugate; available from Biosource, Camarillo, Calif.). The beads were then resuspended in 100 μl chemiluminescent detection reagent (Super Signal Pico Chemiluminescent Substrate™; available from Pierce, Rockford, Ill.) and luminescence was read on a Tecan plate reader. […]

[3] = molecular target: T2, 26S proteasome CT-L activity in lysate of HT29 (constitutive) vs Sultan/Thp1 (immunoproteasome) cells (Homo sapiens, UniProt P28062+P28074); experiment: CT-L EC50 with 26S proteasome in cell lysate (Lysate ratio); format: biochemical; settings: HT29 lysate to Sultan/Thp1 lysate, >1 = prefers immunoproteasome
T2 construct: using 26S proteasome in the context of a cell lysate; endogenous in cells; host or cells: HT29 lysate (constitutive); Sultan or THP1 lysate (immunoproteasome)
T2 sequence (P28074 60-263): T1 sequence (P28074 60-263)
T2 sequence (P28062 73-276): T1 sequence (P28062 73-276)
Procedure: Alternatively, the CT-L EC50 of a compound can be determined using 26S proteasome in the context of a cell lysate. Compound is added to lysate generated from cells that either predominantly express constitutive proteasome (e.g., HT29) or immunoproteasome (e.g., THP1). Again, the inhibitory preference is then based on the EC50 ratio (Lysate ratio).

| SMILES | 20 S ratio (const:immuno) [1] | Elisa ratio (beta5:LMP7) [2] | Lysate ratio (HT29:Sultan/Thp1) [3] | ELISA ratio (EC50 β5 antibody : LMP7 antibody) ([2]; RPMI-8226 cells treated with 0.1 nM to 1 μM) |
| --- | --- | --- | --- | --- |
| CC[C@@H](NC(=O)OCc1ccccc1)C(=O)N[C@@H](Cc1c[nH]c2ccccc12)C(=O)N[C@@H](Cc1ccccc1)C(=O)C1(C)CO1 (some centres unmarked) [drawing 84] | >5.0 | >5.0 | >3.0 |  |
| CC[C@H](C)C(NC(=O)[C@H](Cc1c[nH]c2ccccc12)NC(=O)[C@H](C)NC(=O)OCc1ccccc1)C(=O)C1(C)CO1 (some centres unmarked) | <0.5 | <1.0 | <0.5 |  |
| CC1(C(=O)[C@H](Cc2ccccc2)NC(=O)[C@H](Cc2c[nH]c3ccccc23)NC(=O)[C@H](CC(N)=O)NC(=O)OCc2ccccc2)CO1 (some centres unmarked) | >1.0 | >1.0 | >5.0 |  |
| CC1(C(=O)[C@H](Cc2ccccc2)NC(=O)[C@H](Cc2c[nH]c3ccccc23)NC(=O)C(CSCc2ccccc2)NC(=O)OCc2ccccc2)CO1 (some centres unmarked) | >2.0 | >1.0 | >3.0 |  |
| CC(C)CC(NC(=O)OCc1ccccc1)C(=O)N[C@@H](CC(C)C)C(=O)N[C@@H](Cc1ccccc1)C(=O)C1(C)CO1 (some centres unmarked) | <0.5 | <0.5 | <1.0 |  |
| C[C@H](NC(=O)OCc1ccccc1)C(=O)N[C@@H](Cc1c[nH]c2ccccc12)C(=O)N[C@@H](C)C(=O)C1(C)CO1 (some centres unmarked) | <0.5 |  |  |  |
| CC1(C(=O)[C@H](Cc2ccccc2)NC(=O)[C@H](Cc2ccccc2)NC(=O)[C@H](Cc2c[nH]cn2)NC(=O)OCc2ccccc2)CO1 (some centres unmarked) | <1.0 | <1.0 | <1.0 |  |
| COc1ccc(NC(=S)N[C@@H](CC(C)C)C(=O)N[C@@H](Cc2ccccc2)C(=O)N[C@@H](CC(C)C)C(=O)C2(C)CO2)cc1 (some centres unmarked) |  |  | <0.5 |  |
| Cc1ccc(CCC(=O)N[C@@H](CC(C)C)C(=O)N[C@@H](Cc2ccccc2)C(=O)N[C@@H](CC(C)C)C(=O)C2(C)CO2)cc1 (some centres unmarked) |  |  | <0.5 |  |
| CC[C@@H](NC(=O)OCc1ccccc1)C(=O)N[C@@H](Cc1c[nH]c2ccccc12)C(=O)N[C@@H](Cc1ccccc1)C(=O)C1(C)CO1 (some centres unmarked) [inhibitor (B)] |  |  |  | greater than 20 |
| CC(C)C[C@H](NC(=O)[C@H](Cc1c[nH]c2ccccc12)NC(=O)[C@H](C)NC(=O)OCc1ccccc1)C(=O)C1(C)CO1 (some centres unmarked) | <0.5 |  |  |  |
| CC(C)CC(NC(=O)Nc1ccccc1)C(=O)N[C@@H](Cc1ccccc1)C(=O)N[C@@H](CC(C)C)C(=O)C1(C)CO1 (some centres unmarked) |  |  | <0.5 |  |
| COc1ccc(NC(=O)NC(CC(C)C)C(=O)N[C@@H](Cc2ccccc2)C(=O)N[C@@H](CC(C)C)C(=O)C2(C)CO2)cc1 (some centres unmarked) |  |  | <0.5 |  |

Continued, values first:

| 20 S ratio (const:immuno) [1] | Elisa ratio (beta5:LMP7) [2] | Lysate ratio (HT29:Sultan/Thp1) [3] | ELISA ratio (EC50 β5 antibody : LMP7 antibody) ([2]; RPMI-8226 cells treated with 0.1 nM to 1 μM) | SMILES |
| --- | --- | --- | --- | --- |
| >5.0 | >5.0 | >5.0 |  | C[C@@H](NC(=O)OCc1ccccc1)C(=O)N[C@@H](Cc1c[nH]c2ccccc12)C(=O)N[C@@H](Cc1ccccc1)C(=O)C1(C)CO1 (some centres unmarked) |
| >5.0 | >5.0 | >3.0 |  | CC[C@H](C)C(NC(=O)OCc1ccccc1)C(=O)N[C@@H](Cc1c[nH]c2ccccc12)C(=O)N[C@@H](Cc1ccccc1)C(=O)C1(C)CO1 (some centres unmarked) |
| >5.0 | >2.0 | >3.0 |  | CC[C@H](C)[C@@H](NC(=O)OCc1ccccc1)C(=O)N[C@@H](Cc1ccccc1)C(=O)N[C@@H](Cc1ccccc1)C(=O)C1(C)CO1 (some centres unmarked) |
| >5.0 | >5.0 | >5.0 |  | CC(C)C[C@@H](NC(=O)OCc1ccccc1)C(=O)N[C@@H](Cc1c[nH]c2ccccc12)C(=O)N[C@@H](Cc1ccccc1)C(=O)C1(C)CO1 (some centres unmarked) |
| >1.0 | >5.0 | >2.0 |  | CC(NC(=O)OCc1ccccc1)C(=O)N[C@@H](Cc1c[nH]c2ccccc12)C(=O)N[C@@H](Cc1ccccc1)C(=O)C1(C)CO1 (some centres unmarked) |
| >5.0 | >5.0 | >2.0 |  | COc1ccc(C[C@H](NC(=O)C(C)NC(=O)OCc2ccccc2)C(=O)N[C@@H](Cc2ccc(O)cc2)C(=O)C2(C)CO2)cc1 (some centres unmarked) [drawing 65] |
| >1.0 | >1.0 | >5.0 |  | CC(NC(=O)OCc1ccccc1)C(=O)N[C@@H](Cc1ccccc1)C(=O)N[C@H](C(=O)C1(C)CO1)c1ccccc1 (some centres unmarked) |
| >5.0 | >5.0 | >3.0 |  | COc1ccc(C[C@H](NC(=O)C(C)NC(=O)OCc2ccccc2)C(=O)N[C@@H](Cc2ccccc2)C(=O)C2(C)CO2)cc1 (some centres unmarked) [drawing 66] |
| <0.5 | <1.0 | <0.5 |  | CC(C)C[C@H](NC(=O)[C@H](Cc1ccccc1)NC(=O)C(C)NC(=O)OCc1ccccc1)C(=O)C1(C)CO1 (some centres unmarked) |
| >1.0 | >5.0 | >2.0 |  | C[C@H](NC(=O)OCc1ccccc1)C(=O)N[C@@H](Cc1ccc(C#N)cc1)C(=O)N[C@@H](Cc1ccccc1)C(=O)C1(C)CO1 (some centres unmarked) |
| >5.0 | >5.0 | >3.0 |  | COc1ccc(C[C@H](NC(=O)C(C)NC(=O)OCc2ccccc2)C(=O)N[C@@H](Cc2ccc(O)cc2)C(=O)C2(C)CO2)cc1 (some centres unmarked) [drawing 67] |
| <0.5 | <0.5 | <0.5 |  | CC(NC(=O)OCc1ccccc1)C(=O)N[C@@H](Cc1ccccc1)C(=O)N[C@@H](C)C(=O)C1(C)CO1 (some centres unmarked) |
|  | <1.0 |  |  | CC[C@@H](C)C(NC(=O)[C@H](Cc1ccccc1)NC(=O)C(C)NC(=O)OCc1ccccc1)C(=O)C1(C)CO1 (some centres unmarked) |
